Experimental data reported in patent publication US10472386B2, “Bile acid derivatives as FXR agonists and methods of use thereof” (priority 2017, dated 2019).

Biological target: T1, human FXR (NR1H4) (Homo sapiens, UniProt Q96RI1)
T1 sequence (Q96RI1 1-486): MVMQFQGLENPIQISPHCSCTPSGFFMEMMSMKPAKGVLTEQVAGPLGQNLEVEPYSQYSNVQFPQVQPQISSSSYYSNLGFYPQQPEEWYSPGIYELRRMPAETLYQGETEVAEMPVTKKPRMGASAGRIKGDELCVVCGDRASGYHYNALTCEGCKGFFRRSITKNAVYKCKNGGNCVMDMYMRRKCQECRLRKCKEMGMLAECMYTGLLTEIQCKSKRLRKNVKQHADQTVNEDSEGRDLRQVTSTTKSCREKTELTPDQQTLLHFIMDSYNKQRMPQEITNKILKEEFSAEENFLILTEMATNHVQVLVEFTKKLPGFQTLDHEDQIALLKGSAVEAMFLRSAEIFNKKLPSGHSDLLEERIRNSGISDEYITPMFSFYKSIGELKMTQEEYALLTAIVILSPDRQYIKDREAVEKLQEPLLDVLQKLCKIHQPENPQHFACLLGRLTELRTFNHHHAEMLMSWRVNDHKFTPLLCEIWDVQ
Assay: Human FXR (NR1H4) Assay (Gal4 promoter driven luciferase reporter, Indigo Bioscience kit IB00601)
Assay type: cell-based
Details: FXR agonistic potency; CHO reporter cells expressing human NR1H4; 22 hours incubation; luciferase readout
Excerpt: Determination of a ligand mediated Gal4 promoter driven transactivation to quantify ligand binding mediated activation of FXR. FXR Reporter Assay kit purchased from Indigo Bioscience (Catalogue number: IB00601) to determine the potency and efficacy of compound developed by Enanta that can induce FXR activation. The principle application of this reporter assay system is to quantify functional activity of human FXR. The assay utilizes non-human mammalian cells, CHO (Chinese hamster ovary) cells engineered to express human NR1H4 protein (referred to as FXR). Reporter cells also incorporate the cDNA encoding beetle luciferase which catalyzes the substrates and yields photon emission. Luminescence intensity of the reaction is quantified using a plate-reading luminometer, Envision. Reporter Cells include the luciferase reporter gene functionally linked to an FXR responsive promoter. Thus, quantifying changes in luciferase expression in the treated reporter cells provides a sensitive surrogate measure of the changes in FXR activity. […] The assay is according to the manufacturer's instructions. In brief, the assay was performed in white, 96 well plates using final volume of 100 uL containing cells with different doses of compounds. Retrieve Reporter Cells from −80° C. storage. Perform a rapid thaw of the frozen cells by transferring a 10 ml volume of 37° C. cell recovery medium into the tube of frozen cells. Recap the tube of Reporter Cells and immediately place it in a 37° C. water bath for 5-10 minutes. Retrieve the tube of Reporter Cell Suspension from the water bath. Sanitize the outside surface of the tube with a 70% alcohol swab, and then transfer it into the cell culture hood. Dispense 90 μl of cell suspension into each well of the 96-well Assay Plate. Transfer the plate into 37° C. incubator, allowing the cells adherent to the bottom of the well. Dilute compounds in Dilution Plate (DP), and administrate to cells at Assay Plate (AP). DMSO content of the samples was kept at 0.2%. Cells were incubated for additional 22 hours before luciferase activities were measured. Thirty minutes before intending to quantify FXR activity, remove Detection Substrate and Detection Buffer from the refrigerator and place them in a low-light area so that they may equilibrate to room temperature. Remove the plate's lid and discard all media contents by ejecting it into an appropriate waste container. Gently tap the inverted plate onto a clean absorbent paper towel to remove residual droplets. Cells will remain tightly adhered to well bottoms. Add 100 μl of luciferase detection reagent to each well of the assay plate. Allow the assay plate to rest at room temperature for at least 5 minutes following the addition of LDR. Set the instrument (Envision) to perform a single 5 second “plate shake” prior to reading the first assay well. Read time may be 0.5 second (500 mSec) per well.

Structure (SMILES) | EC50
CC[C@H]1[C@@H](O)[C@@H]2[C@H](CC[C@]3(C)[C@@H]([C@H](C)COC(=O)NS(=O)(=O)c4ccc(O[C@@H](C)CC)cc4)CC[C@@H]23)[C@@]2(C)CC[C@@H](O)C[C@@H]12 [Example 16] | < 1 nM
CC[C@H]1[C@@H](O)[C@@H]2[C@H](CC[C@]3(C)[C@@H]([C@H](C)COC(=O)NS(=O)(=O)c4ccc(OC5CCCC5)cc4)CC[C@@H]23)[C@@]2(C)CC[C@@H](O)C[C@@H]12 [Example 9] | < 1 nM
CC[C@H]1[C@@H](O)[C@@H]2[C@H](CC[C@]3(C)[C@@H]([C@H](C)COC(=O)NS(=O)(=O)c4ccc5c(c4)CCC(C)(C)O5)CC[C@@H]23)[C@@]2(C)CCC(=O)C[C@@H]12 [Example 34] | < 1 nM
CC[C@H]1[C@@H](O)[C@@H]2[C@H](CC[C@]3(C)[C@@H]([C@H](C)COC(=O)NS(=O)(=O)c4ccc5c(c4)CC(C)(C)O5)CC[C@@H]23)[C@@]2(C)CC[C@@H](O)C[C@@H]12 [Example 6] | < 1 nM
CC[C@H]1[C@@H](O)[C@@H]2[C@H](CC[C@]3(C)[C@@H]([C@H](C)COC(=O)NS(=O)(=O)c4ccc(OC(C)(C)C)cc4)CC[C@@H]23)[C@@]2(C)CC[C@@H](O)C[C@@H]12 [Example 24] | < 1 nM
CC[C@H]1[C@@H](O)[C@@H]2[C@H](CC[C@]3(C)[C@@H]([C@H](C)COC(=O)NS(=O)(=O)c4ccc5c(c4)CCC(C)(C)O5)CC[C@@H]23)[C@@]2(C)CC[C@H](O)C[C@@H]12 [Example 33] | < 1 nM
CCCCOc1ccc(S(=O)(=O)NC(=O)OC[C@@H](C)[C@H]2CC[C@H]3[C@@H]4[C@H](O)[C@H](CC)[C@@H]5C[C@H](O)CC[C@]5(C)[C@H]4CC[C@]23C)cc1 [Example 21] | 1 to 10 nM
CC[C@H]1[C@@H](O)[C@@H]2[C@H](CC[C@]3(C)[C@@H]([C@H](C)COC(=O)NS(=O)(=O)c4ccc(OC(F)(F)F)cc4)CC[C@@H]23)[C@@]2(C)CC[C@@H](O)C[C@@H]12 [Example 23] | > 100 nM
CC(C)Oc1ccc(S(=O)(=O)NC(=O)OC[C@@H](C)[C@H]2CC[C@H]3[C@@H]4[C@H](O)C[C@@H]5C[C@H](O)CC[C@]5(C)[C@H]4CC[C@]23C)cc1 [Example 3] | > 100 nM
C[C@H](COC(=O)NS(=O)(=O)c1ccc(OC(C)(C)C)cc1)[C@H]1CC[C@H]2[C@@H]3[C@H](O)C[C@@H]4C[C@H](O)CC[C@]4(C)[C@H]3CC[C@]12C [Example 2] | 10 to 100 nM
CC[C@H]1[C@@H](O)[C@@H]2[C@H](C[C@H](O)[C@]3(C)[C@@H]([C@H](C)COC(=O)NS(=O)(=O)c4ccc5c(c4)CCC(C)(C)O5)CC[C@@H]23)[C@@]2(C)CC[C@@H](O)C[C@@H]12 [Example 32] | > 100 nM
CC[C@H]1[C@@H](O)[C@@H]2[C@H](CC[C@]3(C)[C@@H]([C@H](C)COC(=O)NS(=O)(=O)c4ccc5c(c4)CCC(C)(C)O5)CC[C@@H]23)[C@@]2(C)CC[C@@H](O)C[C@@H]12 [Example 5] | < 1 nM
CC[C@H]1[C@@H](O)[C@@H]2[C@H](CC[C@]3(C)[C@@H]([C@H](C)COC(=O)NS(=O)(=O)c4ccc(OC)cc4)CC[C@@H]23)[C@@]2(C)CC[C@@H](O)C[C@@H]12 [Example 27] | 1 to 10 nM
CCC(CC)Oc1ccc(S(=O)(=O)NC(=O)OC[C@@H](C)[C@H]2CC[C@H]3[C@@H]4[C@H](O)[C@H](CC)[C@@H]5C[C@H](O)CC[C@]5(C)[C@H]4CC[C@]23C)cc1 [Example 19] | 10 to 100 nM
CC[C@H]1[C@@H](O)[C@@H]2[C@H](CC[C@]3(C)[C@@H]([C@H](C)COC(=O)NS(=O)(=O)c4ccc(OC(F)(F)C(F)(F)F)cc4)CC[C@@H]23)[C@@]2(C)CC[C@@H](O)C[C@@H]12 [Example 30] | 1 to 10 nM
CC[C@H]1[C@@H](O)[C@@H]2[C@H](CC[C@]3(C)[C@@H]([C@H](C)COC(=O)NS(=O)(=O)c4cnc(OC(C)C)nc4)CC[C@@H]23)[C@@]2(C)CC[C@@H](O)C[C@@H]12 [Example 28] | 10 to 100 nM
CC[C@H]1[C@@H](O)[C@@H]2[C@H](CC[C@]3(C)[C@@H]([C@H](C)COC(=O)NS(=O)(=O)c4ccc(O)cc4)CC[C@@H]23)[C@@]2(C)CC[C@@H](O)C[C@@H]12 [Example 26] | > 100 nM
CC[C@H]1[C@@H](O)[C@@H]2[C@H](CC[C@]3(C)[C@@H]([C@H](C)COC(=O)NS(=O)(=O)c4ccc(OC(C)(C)C)cn4)CC[C@@H]23)[C@@]2(C)CC[C@@H](O)C[C@@H]12 [Example 22] | < 1 nM
CC[C@H]1[C@@H](O)[C@@H]2[C@H](CC[C@]3(C)[C@@H]([C@H](C)COC(=O)NS(=O)(=O)c4ccc(O[C@H](C)CC)cc4)CC[C@@H]23)[C@@]2(C)CC[C@@H](O)C[C@@H]12 [Example 17] | < 1 nM
CC[C@H]1[C@@H](O)[C@@H]2[C@H](CC[C@]3(C)[C@@H]([C@H](C)COC(=O)NS(=O)(=O)c4ccc(OC5CC5)cc4)CC[C@@H]23)[C@@]2(C)CC[C@@H](O)C[C@@H]12 [Example 7] | < 1 nM
CC[C@H]1[C@@H](O)[C@@H]2[C@H](CC[C@]3(C)[C@@H]([C@H](C)COC(=O)NS(=O)(=O)c4ccc(OC(C)C)cc4)CC[C@@H]23)[C@@]2(C)CC[C@@H](O)C[C@@H]12 [Example 4] | < 1 nM
CCOc1ccc(S(=O)(=O)NC(=O)OC[C@@H](C)[C@H]2CC[C@H]3[C@@H]4[C@H](O)[C@H](CC)[C@@H]5C[C@H](O)CC[C@]5(C)[C@H]4CC[C@]23C)cc1 [Example 14] | < 1 nM
CC[C@H]1[C@@H](O)[C@@H]2[C@H](CC[C@]3(C)[C@@H]([C@H](C)COC(=O)NS(=O)(=O)c4cc(C)c(OC(C)C)c(C)c4)CC[C@@H]23)[C@@]2(C)CC[C@@H](O)C[C@@H]12 [Example 18] | < 1 nM
CC[C@H]1[C@@H](O)[C@@H]2[C@H](CC[C@]3(C)[C@@H]([C@H](C)COC(=O)NS(=O)(=O)c4ccc(OC5(C)CC5)cc4)CC[C@@H]23)[C@@]2(C)CC[C@@H](O)C[C@@H]12 [Example 29] | < 1 nM
CC[C@H]1[C@@H](O)[C@@H]2[C@H](CC[C@]3(C)[C@@H]([C@H](C)COC(=O)NS(=O)(=O)c4ccc(OC5(C)CCCCC5)cc4)CC[C@@H]23)[C@@]2(C)CC[C@@H](O)C[C@@H]12 [Example 12] | < 1 nM
CC[C@H]1[C@@H](O)[C@@H]2[C@H](CC[C@]3(C)[C@@H]([C@H](C)COC(=O)NS(=O)(=O)c4ccc(Oc5ccccc5)cc4)CC[C@@H]23)[C@@]2(C)CC[C@@H](O)C[C@@H]12 [Example 25] | > 100 nM
CC[C@H]1[C@@H](O)[C@@H]2[C@H](C[C@H](O)[C@]3(C)[C@@H]([C@H](C)COC(=O)NS(=O)(=O)c4ccc(OC(C)C)cc4)CC[C@@H]23)[C@@]2(C)CC[C@@H](O)C[C@@H]12 [Example 31] | > 100 nM
CC[C@H]1[C@@H](O)[C@@H]2[C@H](CC[C@]3(C)[C@@H]([C@H](C)COC(=O)NS(=O)(=O)c4ccc(OC5CCCCC5)cc4)CC[C@@H]23)[C@@]2(C)CC[C@@H](O)C[C@@H]12 [Example 11] | 1 to 10 nM
